Source: patent US10966996B2, “Glechoma longitube extract, preparation method for same, and use thereof in sugar reduction, weight loss, and lipid reduction” (SHANGHAI INSTITUTE OF MATERIA MEDICA CHINESE ACADEMY OF …, priority 2014, dated 2021)

Tests used:
C57BL/KsJ mice = test: acute oral glucose tolerance test (OGTT) and blood insulin in mice; type: in vivo; settings: for acute oral glucose tolerance in mice: both 100 mg/kg and 200 mg/kg; for acute oral glucose tolerance in mice, compared with Sitagliptin (10 mg/kg): higher dose (200 mg/kg)
Method: (§1) Oral glucose tolerance test (OGTT) method: 8-week old male C57BL/KsJ mice (Shanghai Slac Laboratory Animal Company), 8 for each group, weight of 20±2 g, were fed according to SPF grade operation procedure and fasted for 16 hours prior to experiment. Blood was collected from tail vein of each group of mice prior to experiment. Blood glucose concentrations were measured using Roche ACCU-CHEK glucometer and recorded as time 0. Different concentrations of the compound were intragastric administrated to each administration group of mice, respectively. Equal volume of distilled water was given to control group of mice. The dosage volume was 10 ml/kg. Half an hour after administration, 5 g/kg glucose was intragastric administrated to each group of mice. Blood glucose concentrations of each group of mice were measured and recorded at 20 mins, 40 mins, and 80 mins after the intragastric administration. OGTT curves were recorded. Areas under the curves (AUC) were calibrated with the data in blood glucose of mice to which glucose was not given (calibration group). ONE-WAY-ANOVA was used to compare significant difference between each group (Note: all the experimental methods for acute oral glucose tolerance test in the following activity examples are the same to the experimental method in Example 5, unless otherwise indicated). Blood was collected from tail vein at 20 mins after oral administration of glucose for mice. ELISA (kit was bought from Millipore, USA) was utilized for measuring blood insulin level of mice.

db/db mice = test: acute oral glucose tolerance in db/db mice; type: in vivo; settings: 100 mg/kg
Method: as §1, with “Blood was collected from tail vein at 20 mins after oral administration of glucose for mice. ELISA (kit was bought from Millipore, USA) was utilized for measuring blood insulin level of mice.” left out

DDP4 enzyme = target: T1, DDP4 enzyme (Homo sapiens, UniProt P27487); test: in vitro inhibiting activity against DDP4 enzyme (Caco-2 cell lysis solution, H-Gly-Pro-AMC substrate); type: biochemical; settings: for inhibition rate against DDP4: 100 μM; for inhibition at 100 µM: read-out: inhibition rate against DDP4
T1 construct: cell lysis solution of human colon cancer cell line Caco-2 as DDP4 enzyme source; endogenous in cells; host or cells: Caco-2 (human colon cancer cell line) lysate
T1 sequence (P27487 whole entry): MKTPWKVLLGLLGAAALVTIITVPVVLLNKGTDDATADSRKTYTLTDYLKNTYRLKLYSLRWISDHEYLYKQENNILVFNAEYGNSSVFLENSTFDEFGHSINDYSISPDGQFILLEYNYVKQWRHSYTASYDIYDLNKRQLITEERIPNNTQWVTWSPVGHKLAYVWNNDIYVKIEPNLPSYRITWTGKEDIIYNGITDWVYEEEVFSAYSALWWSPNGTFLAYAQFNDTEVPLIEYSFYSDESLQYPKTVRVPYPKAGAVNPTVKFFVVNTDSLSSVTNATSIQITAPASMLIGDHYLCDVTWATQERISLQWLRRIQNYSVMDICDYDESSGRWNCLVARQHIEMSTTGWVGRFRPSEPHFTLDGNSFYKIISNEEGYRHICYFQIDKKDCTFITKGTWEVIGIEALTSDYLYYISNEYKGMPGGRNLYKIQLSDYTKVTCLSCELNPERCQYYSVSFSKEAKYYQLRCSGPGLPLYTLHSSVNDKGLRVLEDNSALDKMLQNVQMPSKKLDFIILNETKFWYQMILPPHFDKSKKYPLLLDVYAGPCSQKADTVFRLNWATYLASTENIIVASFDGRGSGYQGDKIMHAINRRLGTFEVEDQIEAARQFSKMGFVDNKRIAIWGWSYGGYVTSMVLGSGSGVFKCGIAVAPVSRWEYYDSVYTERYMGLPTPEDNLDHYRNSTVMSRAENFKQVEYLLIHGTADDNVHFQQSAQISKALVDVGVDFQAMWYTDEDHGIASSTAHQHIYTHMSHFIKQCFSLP
Method: Experimental method: (1) determination of inhibiting activity of Compound I and Compound II against DDP4 enzyme in vitro: cell lysis solution of human colon cancer cell line Caco-2 as DDP4 enzyme source (Thomas, L., et al, 2008, JPET). In a drug screening system of 96-well plate, 100 μL/well, the final concentration of H-Gly-Pro-AMC substrate (AnaSpec) was 244 μM, in which different concentrations of test compounds were added for incubation at 37° C. for 30 mins Fluorescence signals were detected at excitation wavelength 380 nm/emission wavelengths 460 nm Inhibition rates (%) on the enzyme of test samples against DDP4 were calculated according to fluorescence absorption value obtained by detection. The inhibition rate (%) is calculated according to the following formula: Inhibition rate (%)=(RFU blank−RFU compound)/(RFU blank−RFU negative control)*100%
RFU compound, RFU blank, and RFU negative control represent the difference of fluorescence values at 30 mins and at 0 min from a compound well, a blank well, and a negative control well free of enzyme; (2) effect of Compound I and Compound II for acute glucose tolerance in mice: the OGTT experimental method was the same to Example 5, the mice were divided into control group; calibration group; Compound I lower dose group (100 mg/kg); Compound I higher dose group (200 mg/kg); Compound II lower dose group (100 mg/kg); Compound II higher dose group (200 mg/kg); and positive drug group (Sitagliptin 10 mg/kg, Merck Company, USA).

porcine pancrelipase = target: T2, porcine pancrelipase (Sus scrofa, UniProt P00591); test: inhibitory activity against pancrelipase (p-Nitrophenyl acetate substrate); type: biochemical; settings: read-out: Inhibition rate % (50 μM) against pancrelipase
T2 construct: purchased Sigma
T2 sequence (P00591 1-450): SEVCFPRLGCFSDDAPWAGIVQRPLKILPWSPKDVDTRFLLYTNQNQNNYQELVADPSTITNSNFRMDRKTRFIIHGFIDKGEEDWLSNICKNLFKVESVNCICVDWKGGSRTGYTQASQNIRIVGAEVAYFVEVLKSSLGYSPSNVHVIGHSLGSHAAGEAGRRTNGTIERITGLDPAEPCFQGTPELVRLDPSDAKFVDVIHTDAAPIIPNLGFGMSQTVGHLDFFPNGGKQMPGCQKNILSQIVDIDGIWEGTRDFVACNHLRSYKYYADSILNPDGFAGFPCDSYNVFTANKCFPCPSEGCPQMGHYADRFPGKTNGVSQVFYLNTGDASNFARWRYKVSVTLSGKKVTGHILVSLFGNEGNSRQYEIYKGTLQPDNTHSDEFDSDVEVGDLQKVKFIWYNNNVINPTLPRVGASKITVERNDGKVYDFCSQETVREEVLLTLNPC
Text: OD compound, OD blank, and OD negative control represented the fluorescence values from a compound well, a blank well, and a negative control well free of DGAT1 enzyme, and the concentrations of the compounds when the enzyme activity inhibition rate (%) reached 50% were set as IC50 value; (3) inhibitory activity of the individual compounds separated from the extract of Glechoma longituba (Nakai) Kupr., LQC-H-1, against pancrelipase: substrate p-Nitrophenyl acetate (Sigma, USA) was formulated to 1.35 mM with phosphate buffer (25 mM, pH 6.8); porcine pancrelipase (Sigma) was formulated to 10 mg/ml with phosphate buffer; brominated eneyne compounds were formulated to solutions of different concentrations with phosphate buffer. Then, 50 μl of 1.35 mM p-Nitrophenyl acetate (Sigma, USA) solution and 10 μl of test compounds of different concentrations were sequentially added into a 96-well plate and pre-incubated at 37° C. for 5 mins. Finally, 50 μl of 10 mg/ml pancrelipase (EC 3.1.1.3, Sigma, USA) was added and mixed. The reaction proceeded at 37° C. for further 20 mins Absorbance of each well was measured at 492 nm. The inhibition rates (%) of the test samples against pancrelipase were calculated based on the absorbance at 492 nm. The concentrations of the compounds when then enzyme activity inhibition rate (%) reached 50% was set as IC50 value. The inhibition rate (%) could be calculated according to the following formula: Inhibition rate (%)=[(A−B)−(C−D)]/(A−B)×100
In the above formula, A, B, C, and D represented the absorbance of a blank well after the reaction, the absorbance of a blank well prior to the reaction, the absorbance of a sample well after the reaction, and the absorbance of a sample well prior to the reaction.

Structure (SMILES) | acute oral glucose tolerance in mice (C57BL/KsJ mice) | acute oral glucose tolerance in mice, compared with Sitagliptin (10 mg/kg) (C57BL/KsJ mice) | acute oral glucose tolerance in db/db mice (db/db mice) | inhibition rate against DDP4 (DDP4 enzyme) | inhibition at 100 µM (DDP4 enzyme) | inhibition at 50 µM (porcine pancrelipase)
O=C(O)C1O[C@@H](OC2C(O)[C@H](O)C(C(=O)O)O[C@H]2Oc2cc(O)c3c(=O)cc(-c4ccc(O)c(O)c4)oc3c2)C(O)C(O)[C@@H]1O (stereo partly drawn) [Compound I, luteolin-7-O-[β-glucuronosyl(1→2)β-glucuronic acid]] | significantly enhance acute oral glucose tolerance | activity comparable to the commercial chemical drug, Sitagliptin | significantly enhances acute oral glucose tolerance | 40.8% | 40.8 ± 3.26% | 41.9%
O=C(O)C1O[C@@H](OC2C(O)[C@H](O)C(C(=O)O)O[C@H]2Oc2cc(O)c3c(=O)cc(-c4ccc(O)cc4)oc3c2)C(O)C(O)[C@@H]1O (stereo partly drawn) [Compound II, apigenin-7-O-[β-glucuronosyl(1→2)β-glucuronic acid]] | significantly enhance acute oral glucose tolerance | activity comparable to the commercial chemical drug, Sitagliptin |  | 34.1% | 34.1 ± 3.91% | 41.6%
